Patent US9273055B2, “Tyrosine kinase inhibitors” (Chembridge Corporation, priority 2008, dated 2016)
Several values for one entry are separate records, joined by “and”; a condition that tells them apart may be missing. Identical values can stand only once. Like-named read-outs stand apart in the source and are kept apart here.

Legend:
[1] = Phase I microsome metabolic stability, mouse; assay type: in vitro ADME; settings: 1.0 mg/ml microsomes
[2] = test system: Caco-2 monolayers; test: Caco-2 cell permeation study; assay type: in vitro ADME; settings: for Papp A to B: apical pH 6.5, 2 h
[3] = molecular target: T1, TrkA (Homo sapiens, UniProt P04629); test: In vitro kinase activity assay (LANCE TR-FRET), TrkA; assay type: biochemical
T1 construct: purchased Invitrogen

[4] = molecular target: T2, ALK (Homo sapiens, UniProt Q9UM73); test: In vitro kinase activity assay (LANCE TR-FRET), ALK; assay type: biochemical
T2 construct: purchased Invitrogen
T2 sequence (Q9UM73 19-1620): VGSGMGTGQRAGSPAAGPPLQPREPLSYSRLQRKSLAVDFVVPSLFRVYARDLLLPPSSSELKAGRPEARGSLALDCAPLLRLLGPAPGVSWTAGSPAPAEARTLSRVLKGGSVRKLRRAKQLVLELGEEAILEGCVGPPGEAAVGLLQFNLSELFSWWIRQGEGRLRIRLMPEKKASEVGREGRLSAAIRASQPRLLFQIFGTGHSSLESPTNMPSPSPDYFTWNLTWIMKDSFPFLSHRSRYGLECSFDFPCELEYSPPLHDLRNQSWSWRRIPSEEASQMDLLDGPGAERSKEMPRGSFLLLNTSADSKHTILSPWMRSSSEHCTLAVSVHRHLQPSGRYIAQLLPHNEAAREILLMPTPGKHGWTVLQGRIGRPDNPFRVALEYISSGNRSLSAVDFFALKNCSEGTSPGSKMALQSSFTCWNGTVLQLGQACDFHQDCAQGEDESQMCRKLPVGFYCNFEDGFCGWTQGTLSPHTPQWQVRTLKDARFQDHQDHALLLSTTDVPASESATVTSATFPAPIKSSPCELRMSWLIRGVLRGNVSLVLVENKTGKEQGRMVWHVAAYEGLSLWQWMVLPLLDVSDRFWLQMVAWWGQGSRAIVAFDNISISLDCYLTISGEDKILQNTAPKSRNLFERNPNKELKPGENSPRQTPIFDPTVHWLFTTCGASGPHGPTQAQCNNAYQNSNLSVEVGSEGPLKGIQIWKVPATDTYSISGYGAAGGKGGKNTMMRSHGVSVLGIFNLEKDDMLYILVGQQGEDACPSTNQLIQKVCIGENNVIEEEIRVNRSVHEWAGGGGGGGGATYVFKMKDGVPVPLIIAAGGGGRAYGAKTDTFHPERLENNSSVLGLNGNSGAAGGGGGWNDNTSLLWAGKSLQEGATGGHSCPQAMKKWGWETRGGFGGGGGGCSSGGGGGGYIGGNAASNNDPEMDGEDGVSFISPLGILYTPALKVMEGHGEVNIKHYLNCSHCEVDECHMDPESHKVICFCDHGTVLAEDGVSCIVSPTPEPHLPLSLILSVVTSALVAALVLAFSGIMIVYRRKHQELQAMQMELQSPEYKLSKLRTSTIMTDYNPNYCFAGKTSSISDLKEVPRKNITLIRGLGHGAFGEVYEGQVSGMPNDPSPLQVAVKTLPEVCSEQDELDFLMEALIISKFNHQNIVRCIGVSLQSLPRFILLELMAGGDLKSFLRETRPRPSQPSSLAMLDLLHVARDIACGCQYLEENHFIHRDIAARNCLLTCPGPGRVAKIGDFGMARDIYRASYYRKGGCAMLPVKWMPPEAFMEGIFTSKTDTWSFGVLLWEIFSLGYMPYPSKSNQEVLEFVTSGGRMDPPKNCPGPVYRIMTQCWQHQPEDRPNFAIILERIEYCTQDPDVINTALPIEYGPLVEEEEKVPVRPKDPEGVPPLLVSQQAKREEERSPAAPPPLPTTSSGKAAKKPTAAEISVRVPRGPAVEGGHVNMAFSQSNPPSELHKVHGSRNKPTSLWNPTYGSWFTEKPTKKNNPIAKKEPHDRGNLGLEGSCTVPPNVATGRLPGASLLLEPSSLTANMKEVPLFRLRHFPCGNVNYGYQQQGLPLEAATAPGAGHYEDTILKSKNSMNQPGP

[5] = Caco-2 cell permeation study; assay type: in vitro ADME; settings: human; for Papp A→B at 2 h, 10 μM / Papp B→A at 2 h, 10 μM: Caco-2, 10 μM; for Papp A→B at 2 h, 10 μM: apical pH 6.5, 2 h; for Papp B→A at 2 h, 10 μM: basolateral pH 7.4, 2 h
[6] = molecular target: hERG potassium channel current expressed in HEK293 cells (Homo sapiens, UniProt Q12809); test: hERG automatic patch clamp (PatchXpress 7000A)
Sequence of hERG potassium channel current expressed in HEK293 cells (Q12809 whole entry): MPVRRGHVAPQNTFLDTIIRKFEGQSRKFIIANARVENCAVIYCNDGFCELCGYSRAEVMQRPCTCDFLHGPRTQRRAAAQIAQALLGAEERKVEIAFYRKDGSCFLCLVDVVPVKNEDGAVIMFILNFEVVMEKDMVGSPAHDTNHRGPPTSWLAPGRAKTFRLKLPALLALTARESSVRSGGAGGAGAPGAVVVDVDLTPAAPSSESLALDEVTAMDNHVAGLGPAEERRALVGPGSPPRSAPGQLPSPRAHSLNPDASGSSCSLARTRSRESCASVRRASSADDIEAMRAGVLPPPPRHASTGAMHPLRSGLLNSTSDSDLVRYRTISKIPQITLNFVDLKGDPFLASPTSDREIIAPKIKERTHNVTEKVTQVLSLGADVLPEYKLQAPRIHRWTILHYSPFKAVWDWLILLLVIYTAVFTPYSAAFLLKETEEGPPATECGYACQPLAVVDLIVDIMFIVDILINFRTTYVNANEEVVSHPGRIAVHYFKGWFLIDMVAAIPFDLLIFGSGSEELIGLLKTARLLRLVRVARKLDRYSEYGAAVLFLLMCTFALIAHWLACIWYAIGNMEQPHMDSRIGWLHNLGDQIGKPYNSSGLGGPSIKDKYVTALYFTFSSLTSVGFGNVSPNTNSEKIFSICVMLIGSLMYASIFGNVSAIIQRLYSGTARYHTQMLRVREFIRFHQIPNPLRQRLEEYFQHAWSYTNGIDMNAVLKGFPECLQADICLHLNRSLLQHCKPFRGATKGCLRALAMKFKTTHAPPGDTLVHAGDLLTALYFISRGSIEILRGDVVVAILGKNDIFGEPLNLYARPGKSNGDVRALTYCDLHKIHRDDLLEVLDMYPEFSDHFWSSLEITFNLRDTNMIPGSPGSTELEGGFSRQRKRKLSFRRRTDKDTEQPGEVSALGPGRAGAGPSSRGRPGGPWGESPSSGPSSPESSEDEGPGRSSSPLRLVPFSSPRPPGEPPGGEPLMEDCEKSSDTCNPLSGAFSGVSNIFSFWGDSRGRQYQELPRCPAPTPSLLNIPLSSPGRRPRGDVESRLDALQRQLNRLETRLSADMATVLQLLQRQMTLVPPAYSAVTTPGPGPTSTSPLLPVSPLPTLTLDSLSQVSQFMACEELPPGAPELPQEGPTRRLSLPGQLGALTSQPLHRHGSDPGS

[7] = molecular target: T3, FLT3-ITD (Homo sapiens, UniProt P36888, cells depend on it, form not given); test: BaF3 stable clone growth (WST-1), FLT3-ITD; settings: read-out: BaF3 Stables IC50 ± SEE, FLT3-ITD
T3 sequence (P36888 with tags, fused parts or gaps INS600HVDFREYEYD): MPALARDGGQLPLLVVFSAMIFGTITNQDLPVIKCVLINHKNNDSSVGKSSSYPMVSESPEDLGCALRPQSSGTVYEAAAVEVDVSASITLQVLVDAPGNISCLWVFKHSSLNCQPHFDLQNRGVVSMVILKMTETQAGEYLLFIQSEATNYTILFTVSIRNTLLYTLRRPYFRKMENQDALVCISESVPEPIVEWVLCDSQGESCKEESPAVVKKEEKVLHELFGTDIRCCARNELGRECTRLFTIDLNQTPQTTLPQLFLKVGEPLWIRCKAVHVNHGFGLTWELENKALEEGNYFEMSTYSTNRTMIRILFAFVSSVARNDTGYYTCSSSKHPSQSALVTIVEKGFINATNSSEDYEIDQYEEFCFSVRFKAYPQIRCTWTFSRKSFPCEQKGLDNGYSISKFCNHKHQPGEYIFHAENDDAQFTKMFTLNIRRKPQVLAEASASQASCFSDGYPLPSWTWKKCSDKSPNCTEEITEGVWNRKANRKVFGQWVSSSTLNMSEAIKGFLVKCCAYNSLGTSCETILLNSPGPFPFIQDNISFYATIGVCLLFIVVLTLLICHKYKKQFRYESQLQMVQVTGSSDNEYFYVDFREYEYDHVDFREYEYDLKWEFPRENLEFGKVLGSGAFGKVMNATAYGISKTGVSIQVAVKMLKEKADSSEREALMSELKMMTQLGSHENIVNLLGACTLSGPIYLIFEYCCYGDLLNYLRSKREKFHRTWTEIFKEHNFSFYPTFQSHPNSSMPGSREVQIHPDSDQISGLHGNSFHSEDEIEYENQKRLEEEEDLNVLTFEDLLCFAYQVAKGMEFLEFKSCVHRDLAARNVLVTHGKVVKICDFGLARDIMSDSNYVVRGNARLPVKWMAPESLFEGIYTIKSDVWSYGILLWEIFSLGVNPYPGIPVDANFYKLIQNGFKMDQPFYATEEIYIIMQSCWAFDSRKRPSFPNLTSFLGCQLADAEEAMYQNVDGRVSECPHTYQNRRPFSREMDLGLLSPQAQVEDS

[8] = Rat pharmacokinetics / bioavailability; assay type: in vivo; settings: for AUC(0-t): male, Sprague-Dawley, plasma, read-out: AUC0-1440 (converted)
[9] = test system: U937 lymphoma cells; test: 3 day cell viability (WST-1), U937; assay type: cell-based; settings: 3 days
[10] = Mouse pharmacokinetics; assay type: in vivo; settings: 10 mg/kg SC
[11] = Dog pharmacokinetics; assay type: in vivo, beagle dog; settings: 5 mg/kg PO
[12] = Guinea pig pharmacokinetics; assay type: in vivo; settings: 10 mg/kg PO
[13] = molecular target: EML4-ALK R1275Q (Homo sapiens, UniProt Q9UM73, R1275Q); test: BaF3 stable clone growth (WST-1), EML4-ALK R1275Q; settings: read-out: BaF3 Stables IC50 ± SEE, R1275Q; EML4-ALK construct
Sequence of EML4-ALK R1275Q (Q9UM73 1060-1620 R1275Q limits assumed): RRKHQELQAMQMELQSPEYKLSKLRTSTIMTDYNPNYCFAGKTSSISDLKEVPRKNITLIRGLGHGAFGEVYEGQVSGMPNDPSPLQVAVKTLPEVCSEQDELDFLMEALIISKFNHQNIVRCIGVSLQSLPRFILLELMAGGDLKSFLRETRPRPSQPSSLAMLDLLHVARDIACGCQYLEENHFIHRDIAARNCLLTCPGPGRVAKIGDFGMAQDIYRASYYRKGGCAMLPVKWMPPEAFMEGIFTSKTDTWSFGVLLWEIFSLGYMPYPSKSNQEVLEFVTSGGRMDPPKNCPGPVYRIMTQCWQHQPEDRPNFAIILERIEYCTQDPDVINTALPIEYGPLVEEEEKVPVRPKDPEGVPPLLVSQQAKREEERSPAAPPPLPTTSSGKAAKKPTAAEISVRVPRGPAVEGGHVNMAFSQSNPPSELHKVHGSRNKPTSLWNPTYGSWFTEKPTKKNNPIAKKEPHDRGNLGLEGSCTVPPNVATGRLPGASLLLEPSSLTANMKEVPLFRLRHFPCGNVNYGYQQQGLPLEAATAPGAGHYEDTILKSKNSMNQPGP

[14] = molecular target: EML4-ALK C1156Y (Homo sapiens, UniProt Q9UM73, C1156Y); test: BaF3 stable clone growth (WST-1), EML4-ALK C1156Y; settings: BaF3 stables
Sequence of EML4-ALK C1156Y (Q9UM73 1060-1620 C1156Y limits assumed): as the sequence (Q9UM73 1060-1620 R1275Q limits assumed) above, with C97Y, Q216R counted along it

[15] = test system: NB-1 neuroblastoma cells; test: 3 day cell viability (WST-1), NB-1; assay type: cell-based; settings: 72 h, 3 days
[16] = Phase I microsome metabolic stability, human; settings: pH 7.4
[17] = Phase I microsome metabolic stability, rat; settings: pH 7.4
[18] = in vitro; settings: rat, pH 7.4
[19] = molecular target: NPM-ALK R1275Q (Homo sapiens, UniProt Q9UM73, R1275Q); test: BaF3 stable clone growth (WST-1), NPM-ALK R1275Q; settings: read-out: BaF3 Stables IC50 ± SEE, R1275Q; NPM-ALK construct
Sequence of NPM-ALK R1275Q (Q9UM73 1060-1620 R1275Q limits assumed): as the sequence (Q9UM73 1060-1620 R1275Q limits assumed) above

[20] = molecular target: NPM-ALK C1156Y (Homo sapiens, UniProt Q9UM73, C1156Y); test: BaF3 stable clone growth (WST-1), NPM-ALK C1156Y; settings: BaF3 stables
Sequence of NPM-ALK C1156Y (Q9UM73 1060-1620 C1156Y limits assumed): as the sequence (Q9UM73 1060-1620 R1275Q limits assumed) above, with C97Y, Q216R counted along it

[21] = molecular target: T4, cMET (Homo sapiens, UniProt P08581); test: In vitro kinase activity assay (LANCE TR-FRET), cMET; assay type: biochemical
T4 construct: purchased Invitrogen
T4 sequence (P08581 25-1390): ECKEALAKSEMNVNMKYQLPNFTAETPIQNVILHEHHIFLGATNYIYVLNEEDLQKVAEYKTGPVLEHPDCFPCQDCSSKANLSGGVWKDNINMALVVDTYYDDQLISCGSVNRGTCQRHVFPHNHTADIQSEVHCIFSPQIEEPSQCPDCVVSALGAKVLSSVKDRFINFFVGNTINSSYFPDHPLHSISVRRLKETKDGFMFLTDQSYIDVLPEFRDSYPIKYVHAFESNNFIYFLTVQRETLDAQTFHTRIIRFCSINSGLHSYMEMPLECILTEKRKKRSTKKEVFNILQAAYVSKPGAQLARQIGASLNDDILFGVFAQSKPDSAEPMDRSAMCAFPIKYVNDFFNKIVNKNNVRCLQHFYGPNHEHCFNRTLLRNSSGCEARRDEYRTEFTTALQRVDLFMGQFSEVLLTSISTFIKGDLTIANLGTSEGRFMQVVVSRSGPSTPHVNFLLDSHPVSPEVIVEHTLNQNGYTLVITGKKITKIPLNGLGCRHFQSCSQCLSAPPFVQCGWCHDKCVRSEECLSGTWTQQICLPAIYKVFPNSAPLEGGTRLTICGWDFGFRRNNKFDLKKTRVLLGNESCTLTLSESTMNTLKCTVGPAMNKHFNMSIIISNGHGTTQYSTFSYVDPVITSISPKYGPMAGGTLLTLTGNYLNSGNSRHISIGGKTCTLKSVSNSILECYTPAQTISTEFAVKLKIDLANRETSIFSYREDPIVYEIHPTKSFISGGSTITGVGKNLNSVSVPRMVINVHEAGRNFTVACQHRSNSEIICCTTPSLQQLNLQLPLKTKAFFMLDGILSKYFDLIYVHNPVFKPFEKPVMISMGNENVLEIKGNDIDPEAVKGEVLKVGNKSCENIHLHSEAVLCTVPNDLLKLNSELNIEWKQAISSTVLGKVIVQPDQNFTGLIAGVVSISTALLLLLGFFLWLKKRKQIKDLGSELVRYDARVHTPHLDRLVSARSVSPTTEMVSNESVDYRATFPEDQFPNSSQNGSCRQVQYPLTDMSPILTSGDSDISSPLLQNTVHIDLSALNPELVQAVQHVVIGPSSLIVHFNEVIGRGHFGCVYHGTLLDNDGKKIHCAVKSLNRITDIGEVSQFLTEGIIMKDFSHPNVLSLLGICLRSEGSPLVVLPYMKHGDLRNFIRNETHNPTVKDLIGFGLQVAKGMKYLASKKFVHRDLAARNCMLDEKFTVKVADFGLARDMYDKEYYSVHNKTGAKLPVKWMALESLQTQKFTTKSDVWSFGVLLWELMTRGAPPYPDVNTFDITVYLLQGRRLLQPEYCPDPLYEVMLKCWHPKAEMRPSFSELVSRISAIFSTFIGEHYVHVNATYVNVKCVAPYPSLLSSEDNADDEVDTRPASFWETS

[22] = test system: K299 lymphoma cells; test: 3 day cell viability (WST-1), K299; assay type: cell-based; settings: Homo sapiens, 72 h, 3 days
[23] = positive control run with the compound of that line, 10 μM

CC(Cc1cc(F)ccc1F)Nc1cc[nH]c(=O)c1-c1nc2cc3c(cc2[nH]1)CN(C)C3=O (centres unmarked) [Compound 33, 2-(4-(1-(2,5-Difluorophenyl)propan-2-ylamino)-2-oxo-1,2-dihydropyridin-3-yl)-6-methyl-6,7-dihydroimidazo[4,5-f]isoindol-5(1H)-one]
Mouse LM-P1 Half-life ([1]; Phase I only, 0.5 μM): 0.901 h | half-life at 0.5 μM ([1]; mouse, liver microsomes, pH 7.4, Phase I only, read-out: Mouse LM-P1 Half-life): 0.214 h | Papp A to B ([2]; Caco-2, 10 μM): 1.7 10−6 cm/sec | Papp B to A ([2]; Caco-2, 10 μM, basolateral pH 7.4, 2 h): 1.4 10−6 cm/sec | Efflux Ratio ([2]; Caco-2, B to A / A to B): 0.5

C[C@@H](Cc1c(F)c(F)cc(F)c1F)Nc1cc[nH]c(=O)c1-c1nc2cc3c(cc2[nH]1)C(=O)N(c1cccnc1)C3O (stereo partly drawn) [Compound 13, 7-Hydroxy-2-(2-oxo-4-(((S)-1-(2,3,5,6-tetrafluorophenyl)propan-2-yl)amino)-1,2-dihydropyridin-3-yl)-6-(pyridin-3-yl)-6,7-dihydroimidazo[4,5-f]isoindol-5(1H)-one]
IC50 [3]: 6.36 nM | IC50 [4]: 15.2 nM

CC(C)NCC(O)COc1cccc2ccccc12 (centres unmarked) [Propranolol, reference compound]
recovery at 2 h, 10 μM ([5]; Caco-2, Pos Ctrl: Propranolol Recovery, positive control run with the compound of that line, 10 μM): 44% | Papp at 2 h, 10 μM ([5]; Caco-2, positive control run with the compound of that line, 10 μM): 14 ×10⁻⁶ cm/s | Pos Ctrl (Papp): Propranolol Papp [2, 23]: 13.7 and 14.3 and 11.8 | Pos Ctrl: Propranolol Recovery [2, 23]: 63% and 26%

(S)-6-(2-(Dimethylamino)ethyl)-2-(2-oxo-4-((1-(2,3,5,6-tetrafluorophenyl)propan-2-yl)amino)-1,2-dihydropyridin-3-yl)-6,7-dihydroimidazo[4,5-f]isoindol-5(3H)-one [Compound 1]
IC50 ([6]; read-out: hERG inhib. IC50, HEK293, hERG tail current): 6250 nM | GI50 [7]: > 3000 nM | AUC0-1440 ([8]; 10 mg/kg I.V.): 329 µg·min/mL | CL ([8]; 10 mg/kg I.V.): 25.5 mL/min/kg | MRT ([8]; 10 mg/kg I.V.): 22.7 h | T1/2 ([8]; 10 mg/kg I.V.): 22.05 h | Vss ([8]; 10 mg/kg I.V.): 23.9 L/kg | AUC0-1440 ([8]; 10 mg/kg P.O.): 0.943 µg·min/mL | Cmax ([8]; 10 mg/kg P.O.): 2.21 ng/mL | F ([8]; 10 mg/kg P.O.): 0.287% | Tmax ([8]; 10 mg/kg P.O.): 1.88 h | IC50 [9]: 1600 nM | F [10]: 30% | Compound 1 (parameter cell as printed) [11]: 17.2 µg·min/mL | F [11]: 12% | F [12]: 1%

C[C@@H](Cc1c(F)c(F)cc(F)c1F)Nc1cc[nH]c(=O)c1-c1nc2cc3c(cc2[nH]1)CN(C1CCN(C)CC1)C3=O [Compound 4, (S)-6-(1-Methylpiperidin-4-yl)-2-(2-oxo-4-(1-(2,3,5,6-tetrafluorophenyl)propan-2-ylamino)-1,2-dihydropyridin-3-yl)-6,7-dihydroimidazo[4,5-f]isoindol-5(3H)-one]
IC50 [13]: 2885 ± 20 nM | IC50 [6]: 2720 nM | reduced potency, C1156Y compared to EML4-ALK parent construct [14]: 2.0 fold | IC50 [15]: 257 nM | half-life at 0.5 μM [16]: > 2 h | microsomal CLint at 0.5 μM [16]: < 5.8 µL/min/mg | half-life at 0.5 μM [17]: > 2 h | microsomal CLint at 0.5 μM [17]: < 5.8 µL/min/mg | Papp A→B at 2 h, 10 μM [5]: < 0.2 ×10⁻⁶ cm/s | Papp B→A at 2 h, 10 μM [5]: 20 ×10⁻⁶ cm/s

C[C@@H](Cc1cc(F)ccc1F)Nc1cc[nH]c(=O)c1-c1nc2cc3c(cc2[nH]1)C(=O)N(C)C3=O (stereo in doubt) [Compound 32, 2-(4-(1-(2,5-Difluorophenyl)propan-2-ylamino)-2-oxo-1,2-dihydropyridin-3-yl)-6-methylimidazo[4,5-f]isoindole-5,7(1H,6H)-dione]
microsomal CLint at 0.5 μM [18]: < 5 µL/min/mg | Papp A→B at 2 h, 10 μM [5]: > 0.2 ×10⁻⁶ cm/s

2-(4-(1-(5-Fluoro-2-methylphenyl)propan-2-ylamino)-2-oxo-1,2-dihydropyridin-3-yl)-6-(2-(dimethylamino)ethyl)-6,7-dihydroimidazo[4,5-f]isoindole-5(1H)-one [Compound 45]
GI50 [7]: > 1000 nM | reduced potency, C1156Y compared to EML4-ALK parent construct [14]: 1.3 fold | IC50 [19]: 81 ± 4.2 nM | reduced potency, C1156Y compared to NPM-ALK parent construct [20]: 1.6 fold

CC(Cc1cc(F)ccc1F)Nc1cc[nH]c(=O)c1-c1nc2cc3c(cc2[nH]1)CNC3=O (centres unmarked) [Compound 53]
half-life at 0.5 μM [18]: 8.88 min | F ([8]; 10 mg/kg P.O.): 0.402% | AUC(0-t) ([8]; iv, 10 mg/kg I.V.): 8850 ng·h/mL | AUC(0-t) ([8]; po, 10 mg/kg P.O.): 35.5 ng·h/mL

C[C@@H](Cc1c(F)c(F)cc(F)c1F)Nc1cc[nH]c(=O)c1-c1nc2cc3c(cc2[nH]1)C(=O)N(c1ccc(F)nc1)C3=O [Compound 15, (S)-6-(6-Fluoropyridin-3-yl)-2-(2-oxo-4-((1-(2,3,5,6-tetrafluorophenyl)propan-2-yl)amino)-1,2-dihydropyridin-3-yl)imidazo[4,5-f]isoindole-5,7(1H,6H)-dione]
IC50 [21]: > 10000 nM | Papp A→B at 2 h, 10 μM [5]: < 0.2 ×10⁻⁶ cm/s | Papp B→A at 2 h, 10 μM [5]: < 0.2 ×10⁻⁶ cm/s | IC50 [22]: > 10000 nM

CC(Cc1cc(F)ccc1F)Nc1cc[nH]c(=O)c1-c1nc2cc3c(cc2[nH]1)C(=O)N(CC(O)CO)C3=O [Compound 34, 2-(4-(1-(2,5-Difluorophenyl)propan-2-ylamino)-2-oxo-1,2-dihydropyridin-3-yl)-6-(R)-2,3-dihydroxypropyl)imidazo[4,5-f]isoindole-5,7(1H,6H)-dione]
Papp A→B at 2 h, 10 μM [5]: < 0.2 ×10⁻⁶ cm/s | Papp A to B ([2]; Caco-2, 10 μM): >0.2 10−6 cm/sec
